Laboratory results taken from patent US20170050957A1, “4-AMINO-6-(HETEROCYCLIC)PICOLINATES AND 6-AMINO-2-(HETEROCYCLIC)PYRIMIDINE-4-CARBOXYLATES AND THEIR USE AS HERBICIDES” (Dow AgroSciences LLC, priority 2013, published 2017).
Where two headings read alike, the source gives them in different places.

Experiments:
[1] = tested on: Key Broadleaf Weed and Crop Species; assay: Post-emergent Test II herbicidal activity (Table 15); format: in vivo; settings: post-emergence, 336 h, 14 d; for pest or weed control at 35 g/ha: 35 g ai/ha; for pest or weed control at 70 g/ha: 70 g ai/ha; for pest or weed control at 140 g/ha: 140 g ai/ha
Procedure, shortened: (§1)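 Visual injury rating (0 = none, 100 = complete kill) taken 14 d after treatment, relative to untreated plants. Compounds in acetone/DMSO with crop oil concentrate and Triton X-155 were track-sprayed at 187 L/ha onto seedlings at the first-second true leaf stage.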

[2] = tested on: Key Grass and Sedge Weeds as well as Grass Crops; assay: Post-emergent Test II herbicidal activity (Table 16); format: in vivo; settings: post-emergence, 336 h, 14 d; for pest or weed control at 35 g/ha: 35 g ai/ha; for pest or weed control at 70 g/ha: 70 g ai/ha; for pest or weed control at 140 g/ha: 140 g ai/ha
Procedure, shortened: as §1

[3] = Abutilon theophrasti, velvetleaf (Abutilon theophrasti), read-out: Visual Growth Reduction (%) 14 Days After Application, ABUTH
[4] = Amaranthus retroflexus, redroot pigweed (Amaranthus retroflexus), read-out: Visual Growth Reduction (%) 14 Days After Application, AMARE
[5] = Brassica napus, oilseed rape, canola (Brassica napus), read-out: Visual Growth Reduction (%) 14 Days After Application, BRSNN
[6] = Chenopodium album, lambsquarters (Chenopodium album), read-out: Visual Growth Reduction (%) 14 Days After Application, CHEAL
[7] = Euphorbia heterophylla, wild poinsettia (Euphorbia heterophylla), read-out: Visual Growth Reduction (%) 14 Days After Application, EPHHL
[8] = Helianthus annuus, sunflower (Helianthus annuus), read-out: Visual Growth Reduction (%) 14 Days After Application, HELAN
[9] = Cyperus esculentus, yellow nutsedge (Cyperus esculentus), read-out: Visual Growth Reduction (%) 14 Days After Application, CYPES
[10] = Echinochloa crus-galli, barnyardgrass (Echinochloa crus-galli), read-out: Visual Growth Reduction (%) 14 Days After Application, ECHCG
[11] = Oryza sativa, rice (Oryza sativa), read-out: Visual Growth Reduction (%) 14 Days After Application, ORYSA
[12] = Setaria faberi, giant foxtail (Setaria faberi), read-out: Visual Growth Reduction (%) 14 Days After Application, SETFA
[13] = Triticum aestivum, wheat, spring (Triticum aestivum), read-out: Visual Growth Reduction (%) 14 Days After Application, TRZAS
[14] = Zea mays, maize, corn (Zea mays), read-out: Visual Growth Reduction (%) 14 Days After Application, ZEAMX

SMILES: Cn1ccc2cc(-c3nc(C(=O)O)c(Cl)c(N)c3F)ccc21 [Compound 1.01]
- pest or weed control at 35 g/ha [1, 3]: 0 to 29%
- pest or weed control at 70 g/ha [1, 3]: 0 to 29%
- pest or weed control at 140 g/ha [1, 3]: 30 to 44%
- pest or weed control at 70 g/ha [1, 4]: 0 to 29%
- pest or weed control at 140 g/ha [1, 4]: 45 to 59%
- pest or weed control at 35 g/ha [1, 5]: 0 to 29%
- pest or weed control at 70 g/ha [1, 5]: 0 to 29%
- pest or weed control at 140 g/ha [1, 5]: 0 to 29%
- pest or weed control at 35 g/ha [1, 6]: 0 to 29%
- pest or weed control at 70 g/ha [1, 6]: 0 to 29%
- pest or weed control at 140 g/ha [1, 6]: 0 to 29%
- pest or weed control at 35 g/ha [1, 7]: 95 to 100%
- pest or weed control at 70 g/ha [1, 7]: 95 to 100%
- pest or weed control at 140 g/ha [1, 7]: 95 to 100%
- pest or weed control at 35 g/ha [1, 8]: 0 to 29%
- pest or weed control at 70 g/ha [1, 8]: 75 to 84%
- pest or weed control at 140 g/ha [1, 8]: 75 to 84%
- pest or weed control at 35 g/ha [2, 9]: 0 to 29%
- pest or weed control at 70 g/ha [2, 9]: 0 to 29%
- pest or weed control at 140 g/ha [2, 9]: 0 to 29%
- pest or weed control at 35 g/ha [2, 10]: 0 to 29%
- pest or weed control at 140 g/ha [2, 10]: 75 to 84%
- pest or weed control at 35 g/ha [2, 11]: 0 to 29%
- pest or weed control at 70 g/ha [2, 11]: 0 to 29%
- pest or weed control at 140 g/ha [2, 11]: 0 to 29%
- pest or weed control at 35 g/ha [2, 12]: 0 to 29%
- pest or weed control at 70 g/ha [2, 12]: 0 to 29%
- pest or weed control at 140 g/ha [2, 12]: 0 to 29%
- pest or weed control at 35 g/ha [2, 13]: 0 to 29%
- pest or weed control at 70 g/ha [2, 13]: 0 to 29%
- pest or weed control at 140 g/ha [2, 13]: 0 to 29%
- pest or weed control at 35 g/ha [2, 14]: 0 to 29%
- pest or weed control at 70 g/ha [2, 14]: 95 to 100%
- pest or weed control at 140 g/ha [2, 14]: 85 to 94%
- melting point: 166 to 168 °C

SMILES: COC(=O)c1nc(-c2c(F)cc3cc[nH]c3c2F)cc(N)c1Cl [Compound 1.27, Methyl 4-amino-3-chloro-6-(5,7-difluoro-1H-indol-6-yl)picolinate]
- pest or weed control at 35 g/ha [1, 3]: 60 to 74%
- pest or weed control at 70 g/ha [1, 3]: 85 to 94%
- pest or weed control at 140 g/ha [1, 3]: 85 to 94%
- pest or weed control at 35 g/ha [1, 4]: 60 to 74%
- pest or weed control at 70 g/ha [1, 4]: 95 to 100%
- pest or weed control at 140 g/ha [1, 4]: 95 to 100%
- pest or weed control at 35 g/ha [1, 5]: 85 to 94%
- pest or weed control at 70 g/ha [1, 5]: 95 to 100%
- pest or weed control at 140 g/ha [1, 5]: 95 to 100%
- pest or weed control at 35 g/ha [1, 6]: 85 to 94%
- pest or weed control at 70 g/ha [1, 6]: 85 to 94%
- pest or weed control at 140 g/ha [1, 6]: 85 to 94%
- pest or weed control at 35 g/ha [1, 7]: 95 to 100%
- pest or weed control at 70 g/ha [1, 7]: 95 to 100%
- pest or weed control at 140 g/ha [1, 7]: 95 to 100%
- pest or weed control at 35 g/ha [1, 8]: 0 to 29%
- pest or weed control at 70 g/ha [1, 8]: 0 to 29%
- pest or weed control at 140 g/ha [1, 8]: 0 to 29%
- pest or weed control at 35 g/ha [2, 9]: 0 to 29%
- pest or weed control at 70 g/ha [2, 9]: 0 to 29%
- pest or weed control at 140 g/ha [2, 9]: 0 to 29%
- pest or weed control at 35 g/ha [2, 10]: 0 to 29%
- pest or weed control at 70 g/ha [2, 10]: 0 to 29%
- pest or weed control at 140 g/ha [2, 10]: 0 to 29%
- pest or weed control at 35 g/ha [2, 11]: 0 to 29%
- pest or weed control at 70 g/ha [2, 11]: 0 to 29%
- pest or weed control at 140 g/ha [2, 11]: 0 to 29%
- pest or weed control at 35 g/ha [2, 12]: 0 to 29%
- pest or weed control at 70 g/ha [2, 12]: 0 to 29%
- pest or weed control at 140 g/ha [2, 12]: 0 to 29%
- pest or weed control at 35 g/ha [2, 13]: 0 to 29%
- pest or weed control at 70 g/ha [2, 13]: 0 to 29%
- pest or weed control at 140 g/ha [2, 13]: 0 to 29%
- pest or weed control at 35 g/ha [2, 14]: 0 to 29%
- pest or weed control at 70 g/ha [2, 14]: 0 to 29%
- pest or weed control at 140 g/ha [2, 14]: 0 to 29%
- melting point: 169 to 171 °C
